From ChEMBL document CHEMBL1139767, “Dragon method for finding novel tyrosinase inhibitors: Biosilico identification and experimental in vitro assays” (Eur J Med Chem, 2007)

Molecular target: T1, Tyrosinase (Agaricus bisporus, UniProt O42713)
T1 sequence (O42713 whole entry): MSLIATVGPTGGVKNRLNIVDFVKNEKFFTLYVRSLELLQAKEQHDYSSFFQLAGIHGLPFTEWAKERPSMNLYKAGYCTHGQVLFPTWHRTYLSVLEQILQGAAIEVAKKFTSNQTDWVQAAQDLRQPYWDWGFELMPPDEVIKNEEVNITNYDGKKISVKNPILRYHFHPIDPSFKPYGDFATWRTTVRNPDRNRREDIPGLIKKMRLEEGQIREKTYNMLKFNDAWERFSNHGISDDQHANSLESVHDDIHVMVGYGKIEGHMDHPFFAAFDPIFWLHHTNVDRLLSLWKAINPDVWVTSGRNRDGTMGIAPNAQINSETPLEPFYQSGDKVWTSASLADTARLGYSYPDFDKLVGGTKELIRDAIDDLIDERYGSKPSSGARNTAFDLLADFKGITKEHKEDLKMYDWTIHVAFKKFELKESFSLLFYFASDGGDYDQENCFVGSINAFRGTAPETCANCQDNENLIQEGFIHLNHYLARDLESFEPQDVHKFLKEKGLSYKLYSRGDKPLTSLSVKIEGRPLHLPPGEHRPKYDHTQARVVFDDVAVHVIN
Description: Inhibition of mashroom tyrosinase

SMILES	IC50 [µM]
CC(=O)N1CCC(N2CCCCC2)CC1	29.9
Cc1ccc(CN2CCC(N3CCCCC3)CC2)cc1	1.72
O=[N+]([O-])c1ccc(S(=O)(=O)N2CCC(N3CCCCC3)CC2)cc1	111
c1ccc(OCCCN2CCC(N3CCCCC3)CC2)cc1	19.5
C1CCN(C2CCNCC2)CC1 [[1,4']Bipiperidinyl]	111
